Source: PubChem BioAssay (NCI)
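Method: 48-hour compound exposure of cells in 96-well plates, five concentrations, linear interpolation of endpoints. Abbreviation: GI50, concentration required for 50% inhibition of growth. TGI marks complete inhibition of growth.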

How the values were obtained:
Test in all cases: inhibition of tumour cell growth, NCI panel, 48 h
HT29 colon = test system: HT29 colon
NCI-H522 lung = test system: NCI-H522 lung
NCI-H23 lung = test system: NCI-H23 lung
T-47D breast = test system: T-47D breast
HOP-92 NSCLC = test system: HOP-92 NSCLC
PC-3 prostate = test system: PC-3 prostate
EKVX NSCLC = test system: EKVX NSCLC
CAKI-1 renal = test system: CAKI-1 renal
MOLT-4 leukemia = test system: MOLT-4 leukemia
UO-31 renal = test system: UO-31 renal

With `O=C(O)C1C2CC3C(OC(=O)C31)C2Br` (stereo not given) as the compound, how does the TGI (HT29 colon) read?
Its TGI is > 100 µM.

And the TGI (NCI-H522 lung)?
Its TGI is > 100 µM.

And the TGI (NCI-H23 lung)?
The TGI was > 100 µM.

And the TGI (T-47D breast)?
Its TGI is > 100 µM.

What about the TGI (HOP-92 NSCLC) of the same compound?
The TGI was > 100 µM.

And the TGI (PC-3 prostate)?
Its TGI is > 100 µM.

What about the TGI (EKVX NSCLC) of the same compound?
The TGI was > 100 µM.

And the TGI (CAKI-1 renal)?
Its TGI is > 100 µM.

What about the TGI (MOLT-4 leukemia) of the same compound?
The TGI was > 58.1 µM.

What about the TGI (UO-31 renal) of the same compound?
Its TGI is > 100 µM.

What does the source list for `C=CC1CC12C(=O)C1OC2(C)C2C(=O)c3c(ccc4c3ccc3ccccc34)C(=O)C12` (stereo not given)?
GI50 (HT29 colon): 91.6 µM; TGI (HT29 colon): > 100 µM; GI50 (NCI-H522 lung): > 100 µM; TGI (NCI-H522 lung): > 100 µM; GI50 (NCI-H23 lung): 37.3 µM; TGI (NCI-H23 lung): > 100 µM; GI50 (T-47D breast): 19.7 µM; TGI (T-47D breast): > 100 µM; GI50 (HOP-92 NSCLC): 34.4 µM; TGI (HOP-92 NSCLC): > 100 µM; GI50 (PC-3 prostate): 35.6 µM; TGI (PC-3 prostate): > 100 µM; GI50 (EKVX NSCLC): 78.6 µM; TGI (EKVX NSCLC): > 100 µM; GI50 (CAKI-1 renal): 19.1 µM; TGI (CAKI-1 renal): 58.6 µM; GI50 (MOLT-4 leukemia): 30.8 µM; TGI (MOLT-4 leukemia): > 100 µM; GI50 (UO-31 renal): > 100 µM; TGI (UO-31 renal): > 100 µM

How did the GI50 (HT29 colon) turn out when `CCN(CC)CCOc1ccc(/C=C2\CC3C4CCC5=CC(=O)CC[C@]5(C)C4CC[C@]3(C)C2=O)cc1OC` (stereo not given in full) was run?
Its GI50 is 1.3 µM.

What about the TGI (HT29 colon) of the same compound?
Its TGI is > 100 µM.

And the GI50 (NCI-H522 lung)?
Its GI50 is 7.15 µM.

What about the TGI (NCI-H522 lung) of the same compound?
Its TGI is > 100 µM.

And the GI50 (NCI-H23 lung)?
Its GI50 is 3.17 µM.

What about the TGI (NCI-H23 lung) of the same compound?
The TGI was 11 µM.

And the GI50 (T-47D breast)?
Its GI50 is 3.14 µM.

And the TGI (T-47D breast)?
Its TGI is 17.1 µM.

And the GI50 (HOP-92 NSCLC)?
The GI50 was 3.14 µM.

And the TGI (HOP-92 NSCLC)?
Its TGI is 7.51 µM.

And the GI50 (PC-3 prostate)?
Its GI50 is 2.92 µM.

And the TGI (PC-3 prostate)?
Its TGI is 13.9 µM.

And the GI50 (EKVX NSCLC)?
The GI50 was 4.88 µM.

What about the TGI (EKVX NSCLC) of the same compound?
The TGI was 19.5 µM.

And the GI50 (CAKI-1 renal)?
Its GI50 is 2.66 µM.

What about the TGI (CAKI-1 renal) of the same compound?
Its TGI is 6.54 µM.

And the GI50 (MOLT-4 leukemia)?
Its GI50 is 5.78 µM.

And the TGI (MOLT-4 leukemia)?
The TGI was > 100 µM.

And the GI50 (UO-31 renal)?
Its GI50 is 0.701 µM.

What about the TGI (UO-31 renal) of the same compound?
Its TGI is > 100 µM.

Which results are given for `ClCCN(CCCl)c1ccc(-n2cnc3c(Cl)ncnc32)cc1`?
GI50 (HT29 colon): 2.07 µM; TGI (HT29 colon): 4.15 µM; GI50 (NCI-H522 lung): 3.84 µM; TGI (NCI-H522 lung): 14.9 µM; GI50 (NCI-H23 lung): 2.02 µM; TGI (NCI-H23 lung): 3.79 µM; GI50 (T-47D breast): 3.28 µM; TGI (T-47D breast): 12.9 µM; GI50 (HOP-92 NSCLC): 10.9 µM; TGI (HOP-92 NSCLC): 26.1 µM; GI50 (PC-3 prostate): 4.38 µM; TGI (PC-3 prostate): 18.2 µM; GI50 (EKVX NSCLC): 1.65 µM; TGI (EKVX NSCLC): 3.66 µM; GI50 (CAKI-1 renal): 0.697 µM; TGI (CAKI-1 renal): 2.05 µM; GI50 (MOLT-4 leukemia): 2.99 µM; TGI (MOLT-4 leukemia): 7.84 µM; GI50 (UO-31 renal): 1.7 µM; TGI (UO-31 renal): 3.34 µM
